The text below walks through data of PMC13229503, “Dissecting mechanisms of ligand binding and conformational changes in the glutamine-binding protein” (eLife, 2026).

The test system of assay [1] is GlnBP. Also on record: method as in Berntsson et al., 2010. The note with it: numerical fits of stopped-flow relaxation curves, Gln:GlnBP 1:1 and 2:1; ref Berntsson et al., 2010; cited from earlier work.
Assay [2] has as its system GlnBP. As to conditions: cited from earlier work.
Assay [3] addresses T1, GlnBP(59 C-130C) (Escherichia coli, UniProt P0AEQ3, T152C/T81C).
T1 construct: made in house; host or cells: E. coli BL21-pLysS
In words: ITC of ligand binding to refolded, unlabeled GlnBP(59C-130C). The method, then:
(§1) The ITC measurements were performed in a MicroCal PEAQ-ITC isothermal titration calorimeter (Malvern Instruments). The prediction ITC software ‘MicroCal PEAQ-ITC Control’ was employed for designing and conducting the experiments. Once the Kd value and the binding stoichiometry (N) were assigned as predefined values, the concentration of both the protein and the titrant (ligand) stock solutions could be calculated by the ‘design-experiment’ function on the software to get an optimal sigmoidal one-site binding curve. GlnBP concentration was assessed using the Nanophotometer (N60 Touch, Implen GmbH) with at least three reading repeats to get accurate determinations of concentration values. For all ITC measurements, the temperature was set at 25 °C with stirring speed at 750 rev/min. The GlnBPs solution (10 μM in PBS buffer pH 7.4, 300 μL) was manually loaded into the sample cell. The titrant (L-glutamine, 100 μM in PBS buffer, pH 7.4) was automatically loaded into the titration syringe and injected in the sample cell with a titration speed of 2 μL every 150 s and a total of 19 injections. As a control experiment, L-glutamine was titrated into the sample cell containing PBS buffer without GlnBPs. All the titration data were analyzed using the MicroCal PEAQ-ITC Analysis Software.

Assay [4] concerns the target T2, GlnBP(111 C-192C) (Escherichia coli, UniProt P0AEQ3, G214C/V133C).
T2 construct: made in house; host or cells: E. coli BL21-pLysS
Kind of assay: ITC of ligand binding to refolded, unlabeled GlnBP(111C-192C). The protocol: as §1

Assay [5] concerns the target T2, GlnBP(111 C-192C). Kind of assay: Diffusion-based smFRET (µsALEX) ligand titration of doubly-labeled GlnBP(111C-192C). It is filed as binding. As to conditions: millimolar ligand, GlnBP(111C-192C) and GlnBP(59C-130C), AF555/AF647. The method, then: The refolded GlnBP(111 C-192C) and GlnBP(59 C-130C) variants were labeled with commercial maleimide derivatives of AF555/AF647 or ATTO 532/ATTO 643 ([Gebhardt et al., 2021]), and then purified by SEC. […] First, the His-tagged protein was incubated in 10 mM DTT in PBS buffer for 30 min to reduce all oxidized cysteine residues. Subsequently, the protein was diluted 10 times with PBS buffer and immobilized on a Nickel Sepharose 6 Fast Flow resin (GE Healthcare). The resin was washed extensively with milliQ water followed by PBS buffer pH 7.4. To remove the excess of DTT, the resin was washed with PBS buffer. […]
Single-molecule μsALEX experiments were carried out at room temperature on a custom-built confocal microscope. […] In general, the 532 and 640 nm diode lasers operated at 60 and 25 μW, respectively (measured at the back aperture of the objective), unless stated otherwise. Fluorescence light was collected by the same objective, focused onto a 50 μm pinhole and separated into two spectral channels (donor and acceptor fluorescence) by a dichroic beamsplitter (H643 LPXR, AHF, Germany). Fluorescence emission was collected by two avalanche photodiodes (SPCM-AQRH-64, Excelitas) after additional filtering (donor channel: BrightLine HC 582/75 and acceptor channel: Longpass 647 LP Edge Basic, both from Semrock, USA). […]

Like-named read-outs stand apart in the source and are kept apart here.

T2 sequence (P0AEQ3 23-248 V133C/G214C): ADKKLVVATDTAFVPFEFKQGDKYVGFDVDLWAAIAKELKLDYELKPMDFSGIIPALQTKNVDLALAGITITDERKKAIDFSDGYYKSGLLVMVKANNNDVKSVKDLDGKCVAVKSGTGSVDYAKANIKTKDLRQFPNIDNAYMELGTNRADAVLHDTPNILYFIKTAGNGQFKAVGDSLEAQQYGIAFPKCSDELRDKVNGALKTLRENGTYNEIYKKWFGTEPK
T1 sequence (P0AEQ3 23-248 T81C/T152C): as the sequence (P0AEQ3 23-248 V133C/G214C) above, with T59C, C111V, T130C, C192G counted along it

`NC(=O)CC[C@H](N)C(=O)O` [L-glutamine]: in assay [1], the effective on-rate constant entry is on record as “about 10^8 M^–1s^–1”. Further, the affinity result in assay [2] (L-glutamine, ref Pistolesi and Tjandra, 2012, Su et al., 2007) is on record as “sub-micromolar affinity”.

In the case of `N=C(N)NCCC[C@H](N)C(=O)O` [L-Arginine], the results for the Kd in assay [3] and in assay [4] were 737 ± 133 µM and 421 ± 292 µM, respectively. Besides, the “ligand-induced FRET shift (conformational change)” value in assay [5] was “hardly any FRET shifts”. Moreover, the affinity entry in assay [2] (arginine, ref Chen et al., 2020) is “millimolar affinity”.

Usually Kd stands for the equilibrium constant for the complex coming apart. High values mean lower affinity, low ones higher affinity.
